# Experimental data from patent US12440484B2, “1,3,4-oxadiazole homophthalimide derivative compounds as histone deacetylase 6 inhibitor, and the pharmaceutical composition comprising the same” (Chong Kun Dang Pharmaceutical Corp., priority 2019, dated 2025).
# How the values were obtained:
# HDAC6 human recombinant = HDAC6 human recombinant (Homo sapiens (Human), UniProt Q9UBN7); assay: HDAC enzyme activity inhibition (in vitro), HDAC6 assay; assay type: biochemical; details: samples at 0.1, 1, 10, 100 and 1000 nM; 37° C. 60 minutes; fluorescence Ex 390, Em 460
# Sequence of HDAC6 human recombinant (Q9UBN7 whole entry): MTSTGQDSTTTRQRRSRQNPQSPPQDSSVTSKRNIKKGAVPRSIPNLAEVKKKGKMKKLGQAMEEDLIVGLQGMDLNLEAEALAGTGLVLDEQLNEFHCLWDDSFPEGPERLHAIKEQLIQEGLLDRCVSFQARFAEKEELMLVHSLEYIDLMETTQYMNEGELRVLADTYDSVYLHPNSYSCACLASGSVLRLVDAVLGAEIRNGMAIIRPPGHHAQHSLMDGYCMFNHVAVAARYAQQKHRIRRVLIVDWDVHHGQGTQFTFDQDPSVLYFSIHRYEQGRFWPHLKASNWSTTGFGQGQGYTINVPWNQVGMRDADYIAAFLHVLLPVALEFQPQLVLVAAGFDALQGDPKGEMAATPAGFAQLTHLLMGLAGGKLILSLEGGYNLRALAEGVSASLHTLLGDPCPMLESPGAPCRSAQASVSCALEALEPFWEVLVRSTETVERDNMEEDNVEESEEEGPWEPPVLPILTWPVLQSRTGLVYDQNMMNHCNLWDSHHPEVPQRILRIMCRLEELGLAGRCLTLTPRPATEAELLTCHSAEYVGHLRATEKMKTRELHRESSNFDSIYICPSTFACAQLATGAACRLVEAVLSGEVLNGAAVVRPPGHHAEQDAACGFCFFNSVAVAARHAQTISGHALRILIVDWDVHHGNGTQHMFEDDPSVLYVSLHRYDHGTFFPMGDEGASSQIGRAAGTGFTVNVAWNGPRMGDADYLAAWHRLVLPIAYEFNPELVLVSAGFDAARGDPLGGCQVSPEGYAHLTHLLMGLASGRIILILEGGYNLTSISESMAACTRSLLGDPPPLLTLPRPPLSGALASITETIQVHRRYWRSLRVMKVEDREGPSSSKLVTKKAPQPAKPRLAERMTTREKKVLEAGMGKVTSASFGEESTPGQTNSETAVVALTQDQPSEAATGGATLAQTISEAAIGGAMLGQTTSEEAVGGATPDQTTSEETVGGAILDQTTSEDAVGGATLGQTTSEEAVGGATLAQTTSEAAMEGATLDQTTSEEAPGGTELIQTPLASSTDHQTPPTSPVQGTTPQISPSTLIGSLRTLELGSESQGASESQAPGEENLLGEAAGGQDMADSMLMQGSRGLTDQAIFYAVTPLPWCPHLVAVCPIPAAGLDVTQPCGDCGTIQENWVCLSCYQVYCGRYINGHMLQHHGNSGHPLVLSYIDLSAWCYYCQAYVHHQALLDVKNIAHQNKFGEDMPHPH
# HDAC1 = HDAC1 (Homo sapiens (Human), UniProt Q13547); assay: HDAC enzyme activity inhibition (in vitro), HDAC1 Fluorimetric Drug Discovery Assay Kit; assay type: biochemical; details: samples at 100, 1000 and 10000 nM; 37° C. 60 minutes; fluorescence Ex 390, Em 460
# Sequence of HDAC1 (Q13547 whole entry): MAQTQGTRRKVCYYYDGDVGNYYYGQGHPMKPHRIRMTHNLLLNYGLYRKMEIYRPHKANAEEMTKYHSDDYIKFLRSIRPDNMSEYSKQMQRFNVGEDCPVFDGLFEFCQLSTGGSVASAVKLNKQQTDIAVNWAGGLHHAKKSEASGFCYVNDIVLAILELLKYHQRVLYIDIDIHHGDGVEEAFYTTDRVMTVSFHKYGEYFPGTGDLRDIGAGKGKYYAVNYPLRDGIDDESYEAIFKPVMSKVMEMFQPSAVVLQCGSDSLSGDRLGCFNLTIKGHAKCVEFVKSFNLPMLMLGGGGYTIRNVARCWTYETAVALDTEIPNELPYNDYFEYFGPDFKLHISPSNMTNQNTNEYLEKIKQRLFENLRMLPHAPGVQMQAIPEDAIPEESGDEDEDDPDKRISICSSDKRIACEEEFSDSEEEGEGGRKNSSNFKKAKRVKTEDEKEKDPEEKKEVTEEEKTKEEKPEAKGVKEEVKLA
Compound,IC50 (HDAC6 human recombinant) [nM],IC50 (HDAC1) [nM]
"CC1(C)C(=O)N(Cc2ccc(-c3nnc(C(F)F)o3)cn2)C(=O)c2c(-c3cccnc3)cccc21 [Compound 85, 2-((5-(5-(difluoromethyl)-1,3,4-oxadiazole-2-yl)pyridine-2-yl)methyl)-4,4-dimethyl-8-(pyridine-3-yl)isoquinoline-1,3(2H,4H)-dione]",50,> 10000
"Cn1c(=O)n(Cc2ccc(-c3nnc(C(F)F)o3)cn2)c(=O)c2cc(Br)ccc21 [Compound 86, 6-bromo-3-((5-(5-(difluoromethyl)-1,3,4-oxadiazole-2-yl)pyridine-2-yl)methyl)-1-methylquinazoline-2,4(1H,3H)-dione]",40,> 10000
"Cn1c(=O)n(Cc2ccc(-c3nnc(C(F)F)o3)cn2)c(=O)c2cc(-c3ccco3)ccc21 [Compound 87, 3-((5-(5-(difluoromethyl)-1,3,4-oxadiazole-2-yl)pyridine-2-yl)methyl)-6-(furan-2-yl)-1-methylquinazoline-2,4(1H,3H)-dione]",23,> 10000
"Cn1c(=O)n(Cc2ccc(-c3nnc(C(F)F)o3)cn2)c(=O)c2cc(-c3ccoc3)ccc21 [Compound 88, 3-((5-(5-(difluoromethyl)-1,3,4-oxadiazole-2-yl)pyridine-2-yl)methyl)-6-(furan-3-yl)-1-methylquinazoline-2,4(1H,3H)-dione]",21,> 10000
"Cn1c(=O)n(Cc2ccc(-c3nnc(C(F)F)o3)cn2)c(=O)c2cc(-c3ccccc3F)ccc21 [Compound 89, 3-((5-(5-(difluoromethyl)-1,3,4-oxadiazole-2-yl)pyridine-2-yl)methyl)-6-(2-fluorophenyl)-1-methylquinazoline-2,4(1H,3H)-dione]",54,> 10000
"Cn1c(=O)n(Cc2ccc(-c3nnc(C(F)F)o3)cn2)c(=O)c2cc(-c3cccc(F)c3)ccc21 [Compound 90, 3-((5-(5-(difluoromethyl)-1,3,4-oxadiazole-2-yl)pyridine-2-yl)methyl)-6-(3-fluorophenyl)-1-methylquinazoline-2,4(1H,3H)-dione]",41,> 10000
"Cn1c(=O)n(Cc2ccc(-c3nnc(C(F)F)o3)cn2)c(=O)c2cc(-c3cccnc3)ccc21 [Compound 91, 3-((5-(5-(difluoromethyl)-1,3,4-oxadiazole-2-yl)pyridine-2-yl)methyl)-1-methyl-6-(pyridine-3-yl)quinazoline-2,4(1H,3H)-dione]",33,> 10000
"Cn1c(=O)n(Cc2ccc(-c3nnc(C(F)F)o3)cn2)c(=O)c2cc(-c3ccncc3)ccc21 [Compound 92, 3-((5-(5-(difluoromethyl)-1,3,4-oxadiazole-2-yl)pyridine-2-yl)methyl)-1-methyl-6-(pyridine-4-yl)quinazoline-2,4(1H,3H)-dione]",35,> 10000
"Cc1ccc(-c2cccc3c2C(=O)N(Cc2ccc(-c4nnc(C(F)F)o4)cn2)C(=O)C3(C)C)o1 [Compound 93, 2-((5-(5-(difluoromethyl)-1,3,4-oxadiazole-2-yl)pyridine-2-yl)methyl)-4,4-dimethyl-8-(5-methylfuran-2-yl)isoquinoline-1,3(2H,4H)-dione]",143,> 10000
"COc1ccc(-c2cccc3c2C(=O)N(Cc2ccc(-c4nnc(C(F)F)o4)cn2)C(=O)C3(C)C)cn1 [Compound 94, 2-((5-(5-(difluoromethyl)-1,3,4-oxadiazole-2-yl)pyridine-2-yl)methyl)-8-(6-methoxypyridine-3-yl)-4,4-dimethylisoquinoline-1,3(2H,4H)-dione]",116,> 10000
"CC1(C)C(=O)N(Cc2ccc(-c3nnc(C(F)F)o3)cn2)C(=O)c2c(-c3ccoc3)cccc21 [Compound 95, 2-((5-(5-(difluoromethyl)-1,3,4-oxadiazole-2-yl)pyridine-2-yl)methyl)-8-(furan-3-yl)-4,4-dimethylisoquinoline-1,3(2H,4H)-dione]",59,> 10000
